Laboratory results: patent publication US20250271418A1, “ANTICANCER DRUG ASSESSMENT METHODS AND ANTICANCER DRUG ASSESSMENT KITS” (TOPPAN HOLDINGS INC., priority 2022, published 2025)
Read-outs that look alike come from different tables or passages of the source.

Columns and labels:
Assay in all cases: cells
[1] = test system: HT29, a human colorectal adenocarcinoma cell line; conditions: 72 h, read-out: Cell viability (%)
[2] = test system: HT29, a human colorectal adenocarcinoma cell line; conditions: 72 h, read-out: Cell viability (%); remark: listed apart in the source
[3] = test system: HT29, a human colorectal adenocarcinoma cell line; conditions: HT-29, 72 h, read-out: Cell viability (%)

`O=c1[nH]cc(F)c(=O)[nH]1` [5-FU, 5-fluorouracil] was tested. Which viability at 1 µM [1] did it give?
The viability at 1 µM was 100 ± 31.2%.

What about the viability at 1 µM [2] of the same compound?
The viability at 1 µM was 100 ± 13.2%.

What about the viability at 1 µM [3] of the same compound?
Its viability at 1 µM is 99.3 ± 21%.

And the viability at 10 µM [3]?
Its viability at 10 µM is 75.3 ± 12.4%.

What about the viability at 100 µM [3] of the same compound?
The viability at 100 µM was 54.3 ± 10.2%.

What about the viability at 1000 µM [3] of the same compound?
The viability at 1000 µM was 40.3 ± 8.34%.
